≈ marks a conversion by molar mass, not a printed value.
What follows are compounds tested on Staphylococcus aureus (Isolate ID ATCC 29213) (assay: Bacterial assay: MIC by broth microdilution or agar dilution (CLSI), S. aureus ATCC 29213). Settings: Staphylococcus aureus, ATCC29213, read-out: S. aureus MIC (μg/mL) Activity Range, S. aureus (ATCC29213).
Type: cell-based
Experimental: Compounds are tested for antimicrobial activity by susceptibility testing in liquid or on solid media. Minimum inhibitory concentrations (MICs) for compounds against each strain are determined by the broth microdilution or agar dilution method according to the guidelines of the Clinical Laboratories and Standards Institute, formerly the National Committee for Clinical Laboratory Standards (Clinical Laboratories and Standards Institute. Methods for Dilution Antimicrobial Susceptibility Tests for Bacteria That Grow Aerobically; Approved Standard—Seventh Edition. Document M7-A7. CLSI, Wayne, Pa., 2006; Clinical Laboratories and Standards Institute). The bacterial strains tested include S. aureus (Staphylococcus aureus (Isolate ID ATCC 29213)) and an FtsZ mutant of this isolate (FtsZ-G196A Staphylococcus aureus (Isolate ID GG/190723/sa/1.2)). Compound MICs were determined to be in the following activity ranges “A” activity≦0.25 μg/mL; “B” activity>0.25 μg/mL-1.0 μg/mL; “C” activity>1.0 μg/mL-16 μg/mL; “D” activity>16 μg/mL and ND=not determined. The bracketed entries indicate entantiomer(s) and their activity.

| SMILES | MIC [µg/mL] |
| --- | --- |
| NC(=O)c1c(F)ccc(OC(COP(=O)(O)O)c2nc(-c3ccc(C(F)(F)F)cc3)c(Br)o2)c1F (stereo not shown) [Compound 81, 2-(5-bromo-4-(4-(trifluoromethyl)phenyl)oxazol-2-yl)-2-(3-carbamoyl-2,4-difluorophenoxy)ethyl dihydrogen phosphate] | 0.25 to 1 |
| CC(=O)OCC(Oc1ccc(F)c(C(N)=O)c1F)c1nc(-c2ccc(-c3noc(C)n3)cc2)c(Br)o1 (stereo not shown) [Compound 82, 2-(5-bromo-4-(4-(5-methyl-1,2,4-oxadiazol-3-yl)phenyl)oxazol-2-yl)-2-(3-carbamoyl-2,4-difluorophenoxy)ethyl acetate] | 1 to 16 |
| Cc1nc(-c2ccc(-c3nc(C(CO)Oc4ccc(F)c(C(N)=O)c4F)oc3Br)cc2)no1 (stereo not shown) [Compound 83, 3-(1-(5-bromo-4-(4-(5-methyl-1,2,4-oxadiazol-3-yl)phenyl)oxazol-2-yl)-2-hydroxyethoxy)-2,6-difluorobenzamide] | 1 to 16 (≈ 1.92 to 30.7 µM) |
| CCOC(=O)COCC(Oc1ccc(F)c(C(N)=O)c1F)c1nc(-c2ccc(C(F)(F)F)cc2)c(Br)o1 (stereo not shown) [Compound 84, ethyl 2-(2-(5-bromo-4-(4-(trifluoromethyl)phenyl)oxazol-2-yl)-2-(3-carbamoyl-2,4-difluorophenoxy)ethoxy)acetate] | 0.25 to 1 (≈ 0.421 to 1.69 µM) |
| Cc1noc(-c2ccc(-c3nc(C(CO)Oc4ccc(F)c(C(N)=O)c4F)oc3Br)cc2)n1 (stereo not shown) [Compound 85, 3-(1-(5-bromo-4-(4-(3-methyl-1,2,4-oxadiazol-5-yl)phenyl)oxazol-2-yl)-2-hydroxyethoxy)-2,6-difluorobenzamide] | 1 to 16 (≈ 1.92 to 30.7 µM) |
| NC(=O)c1c(F)ccc(OC(COCC(=O)O)c2nc(-c3ccc(C(F)(F)F)cc3)c(Br)o2)c1F (stereo not shown) [Compound 86, 2-(2-(5-bromo-4-(4-(trifluoromethyl)phenyl)oxazol-2-yl)-2-(3-carbamoyl-2,4-difluorophenoxy)ethoxy)acetic acid] | > 16 |
| CNC(=O)CC(Oc1ccc(F)c(C(N)=O)c1F)c1nc(-c2ccc(C(F)(F)F)cc2)c(Br)o1 (stereo not shown) [Compound 87, 3-(1-(5-bromo-4-(4-(trifluoromethyl)phenyl)oxazol-2-yl)-3-(methylamino)-3-oxopropoxy)-2,6-difluorobenzamide] | 0.25 to 1 (≈ 0.456 to 1.82 µM) |
| CN(C)C(=O)CC(Oc1ccc(F)c(C(N)=O)c1F)c1nc(-c2ccc(C(F)(F)F)cc2)c(Br)o1 (stereo not shown) [Compound 88, 3-(1-(5-bromo-4-(4-(trifluoromethyl)phenyl)oxazol-2-yl)-3-(dimethylamino)-3-oxopropoxy)-2,6-difluorobenzamide] | 1 to 16 (≈ 1.78 to 28.5 µM) |
| CC(=O)OCCCC(Oc1ccc(F)c(C(N)=O)c1F)c1nc(-c2ccc(C(F)(F)F)cc2)c(Br)o1 (stereo not shown) [Compound 89, 4-(5-bromo-4-(4-(trifluoromethyl)phenyl)oxazol-2-yl)-4-(3-carbamoyl-2,4-difluorophenoxy)butyl acetate] | 0.25 to 1 |
| NC(=O)c1c(F)ccc(OC(CCCO)c2nc(-c3ccc(C(F)(F)F)cc3)c(Br)o2)c1F (stereo not shown) [Compound 90, 3-(1-(5-bromo-4-(4-(trifluoromethyl)phenyl)oxazol-2-yl)-4-hydroxybutoxy)-2,6-difluorobenzamide] | 0.25 to 1 (≈ 0.467 to 1.87 µM) |
| NC(=O)c1c(F)ccc(OC(CCC(=O)O)c2nc(-c3ccc(C(F)(F)F)cc3)c(Br)o2)c1F (stereo not shown) [Compound 91, 4-(5-bromo-4-(4-(trifluoromethyl)phenyl)oxazol-2-yl)-4-(3-carbamoyl-2,4-difluorophenoxy)butanoic acid] | 1 to 16 (≈ 1.82 to 29.1 µM) |
| CC(=O)NNC(=O)CCC(Oc1ccc(F)c(C(N)=O)c1F)c1nc(-c2ccc(C(F)(F)F)cc2)c(Br)o1 (stereo not shown) [Compound 92, 3-(4-(2-acetylhydrazinyl)-1-(5-bromo-4-(4-(trifluoromethyl)phenyl)oxazol-2-yl)-4-oxobutoxy)-2,6-difluorobenzamide] | 1 to 16 (≈ 1.65 to 26.4 µM) |
| CNC(=O)CCC(Oc1ccc(F)c(C(N)=O)c1F)c1nc(-c2ccc(C(F)(F)F)cc2)c(Br)o1 (stereo not shown) [Compound 93, 3-(1-(5-bromo-4-(4-(trifluoromethyl)phenyl)oxazol-2-yl)-4-(methylamino)-4-oxobutoxy)-2,6-difluorobenzamide] | 0.25 to 1 (≈ 0.445 to 1.78 µM) |

Source: patent publication US9511073B2, “Aromatic amides and uses thereof” (TAXIS Pharmaceuticals, Inc., priority 2011, dated 2016)
